Reference: paper PMC2192356 (The Journal of Experimental Medicine, 1996)
Where a SMILES comes first, the peptide text is derived from it. Where no end group is shown, it is not given here. The star is where a group is joined. Biotin = O=C1N[C@H]2[C@H](CS[C@H]2CCCCC(=O)*)N1

Assays:
IAk [1] = target: T1, IAk (Mus musculus, UniProt P01910+P06343); assay type: binding, murine; settings: pH 5
IEk [2] = assay type: binding, murine; settings: pH 5
IAd [3] = assay type: binding, murine; settings: pH 5
IAk [4] = target: T1, IAk; assay type: binding, murine; settings: pH 5; remark: listed apart in the source
IAd [5] = assay type: binding, murine; settings: pH 5; remark: listed apart in the source
IEd = assay type: binding, murine; settings: pH 5
DR1 [6] = target: T2, DR1 (Homo sapiens, UniProt P01903+P01911, A100R/D57E/F55L/F60I/F76Y/I96L/L162R/M171V/P40L/Q125E/R42F/V115G/Y59C); assay type: binding; settings: pH 7
IEk [7] = assay type: binding, murine; settings: pH 5; remark: listed apart in the source
DR1 [8] = target: T2, DR1; assay type: binding; settings: pH 5
[9] = tested on: 3DO-54.8 T cells with CH27 APC; assay type: cell-based
IEk [10] = assay type: binding, murine; settings: pH 5; remark: listed apart in the source
IAk [11] = target: T1, IAk; assay type: binding, murine; settings: pH 7
class II proteins = assay type: binding
IAb = assay type: binding, murine
IAk [12] = target: T1, IAk; assay type: binding, murine; settings: pH 5; remark: listed apart in the source
DR1 [13] = target: T2, DR1; assay type: binding; settings: pH 7; remark: listed apart in the source
[14] = target: IAk (mouse (endogenous in CH27 B lymphoma)); assay: ELISA
[15] = target: DR1 (human (endogenous in LG2)) (UniProt P01903); assay: ELISA

biotin-SEB, sequence (P01552 28-266): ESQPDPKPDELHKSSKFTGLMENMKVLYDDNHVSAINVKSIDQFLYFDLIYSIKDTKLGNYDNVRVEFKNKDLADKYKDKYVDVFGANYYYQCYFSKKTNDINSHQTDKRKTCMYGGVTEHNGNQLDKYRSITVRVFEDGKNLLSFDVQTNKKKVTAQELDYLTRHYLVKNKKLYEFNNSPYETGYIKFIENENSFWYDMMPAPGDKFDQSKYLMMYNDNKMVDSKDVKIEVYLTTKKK

With CC(C)C[C@H](NC(=O)[C@H](C)NC(=O)[C@H](CCC(=O)O)NC(=O)[C@@H](NC(=O)[C@H](CC(C)C)NC(=O)[C@H](Cc1c[nH]cn1)NC(=O)CCCC[C@@H]1SC[C@@H]2NC(=O)N[C@@H]21)C(C)C)C(=O)N[C@@H](Cc1ccc(O)cc1)C(=O)N[C@@H](CC(C)C)C(=O)N[C@H](C(=O)N[C@@H](CS)C(=O)NCC(=O)N[C@@H](CCC(=O)O)C(=O)N[C@@H](CCCNC(=N)N)C(=O)NCC(=O)N[C@@H](Cc1ccccc1)C(=O)N[C@@H](Cc1ccccc1)C(=O)N[C@@H](Cc1ccc(O)cc1)C(=O)N[C@H](C(=O)N1CCC[C@H]1C(=O)N[C@@H](CCCCNC(=O)CCCC[C@@H]1SC[C@@H]2NC(=O)N[C@@H]21)C(=O)N[C@@H](C)C(=O)O)[C@@H](C)O)C(C)C [biotin-B(10-30)] (Biotin-HLVEALYLVCGERGFFYTPK(Biotin)A-OH; N-terminus and C-terminus assumed) the “time to saturate the alternative binding site of IAk” value (IAk [1]) was no more than 1 h.

FVNQHLCGSHLVEALYLVCGER [B(1-22)] was tested, and the “inhibition of the binding of biotin-B(10-30)” value (IEk [2]) was “inhibits”, the “inhibition of the binding of biotin-B(10-30)” value (IAd [3]) was “inhibits” and the “inhibition of the binding of biotin-B(10-30)” value (IAk [4]) was “inhibits”.

With HLVEALYLVCGERGFFYTPKA [B(10-30)] the “inhibition of the binding of biotin-B(10-30)” value (IEk [2]) was “inhibit”, the “specific binding to class II protein” value (IAd [5]) was “binds” and the “specific binding to class II protein” value (IEd) was “binds”. For the same molecule, the “inhibition of the binding of biotin-B(10-30)” value (IAd [3]) was “inhibit”, the “affinity for DR1 relative to HA(306-318), logs lower” value (DR1 [6]) was ~ 3 logs and the “inhibition of the binding of allele-specific antigenic peptides” value (DR1 [6]) was “only weakly inhibited”. For the same molecule, the “specific binding to class II protein” value (IEk [7]) was “binds”, the “inhibition of the binding of biotin-B(10-30)” value (IAk [4]) was “inhibit” and the “specific binding to class II protein” value (DR1 [8]) was “binds”. The “effect on stimulation by anti-CD3 mAb (T cell toxicity)” value (3DO-54.8 T cells) was “not altered”, the “specific binding to class II protein” value (IAk [1]) was “binds” and the “inhibition of the response of 3DO-54.8 to SEB (IL-2)” value [9] was “inhibited”. The “affinity for the groove of IEk relative to pCc(91-104), logs lower” value (IEk [10]) was “at least 3 logs”, the “inhibition of the binding of allele-specific antigenic peptides” value (IEk [10]) was “only weakly inhibited” and the “inhibition of the binding of biotin-SEB to IAk” value (IAk [11]) was “inhibited”. The “peptide concentration giving complete inhibition of SEB binding to IAk” value (IAk [11]) was 4, the “dissociation rate from class II” value (class II proteins) was “relatively rapid” and the “pH dependence of binding to murine class II proteins” value (class II proteins) was “not enhanced”. For the same molecule, the “time to approach saturation / plateau of binding to class II” value (class II proteins) was 1 to 2 h, the “specific binding to class II protein” value (IAb) was “binds” and the “inhibition of the binding of allele-specific antigenic peptides” value (IAk [12]) was “only weakly inhibited”.

With Intact insulin [reference compound] the “inhibition of the binding of biotin-B(10-30)” value (IEk [2]) was “does not inhibit”, the “inhibition of the binding of biotin-B(10-30)” value (IAd [3]) was “does not inhibit” and the “inhibition of the binding of biotin-B(10-30)” value (IAk [4]) was “does not inhibit”.

With “MAT(17-31): DR1-binding antigenic peptide defined by specific T cells (SGPLKAEIAQRLEDV)” the “inhibition of the binding of biotin-B(10-30) to DR1” value (DR1 [13]) was 25- 50%.

“Myo(106-118): IAd-binding peptide (FISEAIIHVLHSR) [reference compound]” was tested, and the “inhibition of biotin-B(10-30) binding to class II” value (class II proteins) was “inhibits”.

With “NTDGSTDYGILQINSR [HEL(46-61), reference compound]” the “inhibition of the response of 3DO-54.8 to SEB (IL-2)” value [9] was “did not”, the “affinity for the groove of IEk relative to pCc(91-104), logs lower” value (IEk [10]) was “at least 3 logs” and the “inhibition of the binding of biotin-SEB to IAk” value (IAk [11]) was “No inhibition”.

In the case of “RADLIAYLKQATAK [pCc(91-104), reference compound]”, the “inhibition of the binding of allele-specific antigenic peptides” value (IEk [10]) is reported as “inhibit”.

“biotin-SEB (from UniProt P01552 28-266) (natural protein)” gave a Kd [14] of 62 nM.

In the case of HLVEALYLVCGERGFFYTPKA (not fully specified (N-terminus); also: biotin (site not given here)) [biotin-B(10-30)], the Kd [15] is reported as 620 nM.
